Results from patent publication US10987349B2, “Antitumor agent and bromodomain inhibitor” (FUJIFILM Corporation, priority 2016, dated 2021).

What was measured:
[1] = system: human lung adenocarcinoma cell line A549; assay: Cell growth test (Cell Titer Glo) A549; assay type: cell-based; details: 3 to 5 days
Excerpt: (§1) The human undifferentiated thymoma cell line Ty-82 (JCRB), the human acute myeloid leukemia cell lines MV4-11 (ATCC), MOLM-13 (ATCC) and RS4-11 (ATCC), the human lymphoma cell line Raji (JCRB), the human cervical epidermoid carcinoma cell line Hela (JCRB), the human lung adenocarcinoma cell line A549 (ATCC), the human colon cancer cell lines DLD1 (DS Pharma) and HCT116 (DS Pharma), and the human pancreatic cancer cell line MIAPACA-2 (ATCC) were used to carry out a cell growth test.
(§2) Ty-82, MV4-11, MOLM-13, RS4-11, Raji and DLD1 were each seeded in a well plate, in which Roswell Park Memorial Institute (RPMI)-1640 medium supplemented with penicillin/streptomycin and fetal bovine serum (FBS) with a final concentration of 10% was placed. Hela was seeded in Dulbecco's Modified Eagle's medium (DMEM) supplemented with penicillin/streptomycin and FBS with a final concentration of 10%. A549 and MIAPACA-2 were each seeded in a well plate, in which Minimum Essential Medium (MEM) supplemented with penicillin/streptomycin and FBS with a final concentration of 10% was placed. […]
(§3) Thereafter, a medium containing a test compound serially diluted with DMSO, or DMSO, was added to each well of the plate, in which the cells had been seeded, and the obtained mixture was then cultured under conditions of 37° C. and 5% CO2 for 3 to 5 days. Cell Titer Glo reaction solution (Promega) was added to the culture, and the amount of luminescence was then measured using Envision plate reader (PerkinElmer). Since the amount of luminescence is in proportion to the concentration of adenosine triphosphate (ATP) in cells, the amount of luminescence was used as an indicator of the number of living cells. The growth inhibition percentage of the test compound in each concentration was calculated according to the following equation. Growth inhibition percentage (%)=(amount of luminescence in test compound−added well)/(amount of luminescence in DMSO−added well)×100 […]

BRD2 BD2 = molecular target: T1, BRD2 BD2 (Homo sapiens, UniProt P25440); assay: Binding assay, BRD2 BD2 to acetylated histone H4 Peptide-Biotin (EPIgeneous Binding Domain Kit B); details: for inhibition at 0.3 µM: test compound at 300 nmol/L, read-out: Binding inhibition percentage BRD2 BD2
T1 construct: BRD2 BD2, BRD3 BD2 and BRD4 BD2 (Cisbio); purchased Cisbio
How it was run: (§4)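 HTRF binding of GST-tagged BD2 (20 nmol/L working stock) to biotinylated acetyl-histone H4 peptide (250 nmol/L working stock), using streptavidin-XL665 and anti-GST Eu cryptate. Incubated 20 h at room temperature; 665/620 nm ratio versus DMSO gives % inhibition; IC50 by four-parameter fit, or % inhibition at 300 nmol/L.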

BRD4 BD1 = molecular target: T2, BRD4 BD1 (Homo sapiens, UniProt O60885); assay: Binding assay, BRD4 BD1 to acetylated histone H4 Peptide-Biotin (EPIgeneous Binding Domain Kit A); details: for inhibition at 0.3 µM: test compound at 300 nmol/L, read-out: Binding inhibition percentage BRD4 BD1
T2 construct: BRD2 BD1, BRD3 BD1 and BRD4 BD1 (Cisbio); purchased Cisbio
How it was run: (§5)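 HTRF competition: bromodomain protein (added at 20 nmol/L) and biotinylated tetra-acetyl H4(1-25) peptide (added at 25 nmol/L) were incubated with compound, streptavidin-d2 and anti-GST Eu cryptate for 20 h at room temperature. Inhibition came from the 665/620 nm ratio relative to DMSO; IC50 by four-parameter fit; some compounds were tested only at 300 nmol/L final.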

BRD2 BD1 = molecular target: T3, BRD2 BD1 (Homo sapiens, UniProt P25440); assay: Binding assay, BRD2 BD1 to acetylated histone H4 Peptide-Biotin (EPIgeneous Binding Domain Kit A); details: for inhibition at 0.3 µM: test compound at 300 nmol/L, read-out: Binding inhibition percentage BRD2 BD1
T3 construct: BRD2 BD1, BRD3 BD1 and BRD4 BD1 (Cisbio); purchased Cisbio
How it was run: as §5

[2] = system: human undifferentiated thymoma cell line Ty-82; assay: Cell growth test (Cell Titer Glo) Ty-82; assay type: cell-based; details: TY82, 3 to 5 days
Excerpt: as §1
(§6) Ty-82, MV4-11, MOLM-13, RS4-11, Raji and DLD1 were each seeded in a well plate, in which Roswell Park Memorial Institute (RPMI)-1640 medium supplemented with penicillin/streptomycin and fetal bovine serum (FBS) with a final concentration of 10% was placed. Hela was seeded in Dulbecco's Modified Eagle's medium (DMEM) supplemented with penicillin/streptomycin and FBS with a final concentration of 10%. A549 and MIAPACA-2 were each seeded in a well plate, in which Minimum Essential Medium (MEM) supplemented with penicillin/streptomycin and FBS with a final concentration of 10% was placed. HCT116 was seeded in a well plate, in which McCoy's 5A medium supplemented with penicillin/streptomycin and FBS with a final concentration of 10% was placed.
(§7) Thereafter, a medium containing a test compound serially diluted with DMSO, or DMSO, was added to each well of the plate, in which the cells had been seeded, and the obtained mixture was then cultured under conditions of 37° C. and 5% CO2 for 3 to 5 days. Cell Titer Glo reaction solution (Promega) was added to the culture, and the amount of luminescence was then measured using Envision plate reader (PerkinElmer). Since the amount of luminescence is in proportion to the concentration of adenosine triphosphate (ATP) in cells, the amount of luminescence was used as an indicator of the number of living cells. The growth inhibition percentage of the test compound in each concentration was calculated according to the following equation. Growth inhibition percentage (%)=(amount of luminescence in test compound−added well)/(amount of luminescence in DMSO−added well)×100
(§8) The growth inhibition percentage of the test compound in each concentration was plotted by performing a non-linear regression analysis [(log (inhibitor) vs. response—Variable slope (four parameters)], using Graphpad prism 5, and a 50% growth inhibitory concentration [GI50 (nmol/L)] was then calculated.

BRD3 BD1 = molecular target: T4, BRD3 BD1 (Homo sapiens, UniProt Q15059); assay: Binding assay, BRD3 BD1 to acetylated histone H4 Peptide-Biotin (EPIgeneous Binding Domain Kit A); details: for inhibition at 0.3 µM: test compound at 300 nmol/L, read-out: Binding inhibition percentage BRD3 BD1
T4 construct: BRD2 BD1, BRD3 BD1 and BRD4 BD1 (Cisbio); purchased Cisbio
How it was run: as §5

[3] = system: human lymphoma cell line Raji; assay: Cell growth test (Cell Titer Glo) Raji; assay type: cell-based; details: 3 to 5 days
Excerpt: as §1, §2, §3

[4] = system: human acute myeloid leukemia cell line MOLM-13; assay: Cell growth test (Cell Titer Glo) MOLM-13; assay type: cell-based; details: 3 to 5 days
Excerpt: as §1, §6, §7, §8

[5] = system: human cervical epidermoid carcinoma cell line Hela; assay: Cell growth test (Cell Titer Glo) Hela; assay type: cell-based; details: 3 to 5 days
Excerpt: as §1, §2, §3

BRD3 BD2 = molecular target: T5, BRD3 BD2 (Homo sapiens, UniProt Q15059); assay: Binding assay, BRD3 BD2 to acetylated histone H4 Peptide-Biotin (EPIgeneous Binding Domain Kit B); details: for inhibition at 0.3 µM: test compound at 300 nmol/L, read-out: Binding inhibition percentage BRD3 BD2
T5 construct: BRD2 BD2, BRD3 BD2 and BRD4 BD2 (Cisbio); purchased Cisbio
How it was run: as §4

BRD4 BD2 = molecular target: T6, BRD4 BD2 (Homo sapiens, UniProt O60885); assay: Binding assay, BRD4 BD2 to acetylated histone H4 Peptide-Biotin (EPIgeneous Binding Domain Kit B); details: for inhibition at 0.3 µM: test compound at 300 nmol/L, read-out: Binding inhibition percentage BRD4 BD2
T6 construct: BRD2 BD2, BRD3 BD2 and BRD4 BD2 (Cisbio); purchased Cisbio
How it was run: as §4

[6] = system: human colon cancer cell line HCT116; assay: Cell growth test (Cell Titer Glo) HCT116; assay type: cell-based; details: HCT-116, 3 to 5 days
Excerpt: as §1, §2, §3

T1 sequence (P25440 344-453 limits assumed): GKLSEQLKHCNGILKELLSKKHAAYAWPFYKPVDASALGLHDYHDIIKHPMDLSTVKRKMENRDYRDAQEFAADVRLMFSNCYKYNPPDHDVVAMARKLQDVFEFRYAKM
T5 sequence (Q15059 306-415 limits assumed): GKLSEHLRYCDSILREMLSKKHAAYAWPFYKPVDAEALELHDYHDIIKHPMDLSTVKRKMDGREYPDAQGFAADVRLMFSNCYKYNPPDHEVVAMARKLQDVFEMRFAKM
T4 sequence (Q15059 34-140 limits assumed): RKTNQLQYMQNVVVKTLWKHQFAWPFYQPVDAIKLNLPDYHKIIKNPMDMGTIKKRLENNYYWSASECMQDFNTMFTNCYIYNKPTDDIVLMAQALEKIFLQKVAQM
T3 sequence (P25440 74-180 limits assumed): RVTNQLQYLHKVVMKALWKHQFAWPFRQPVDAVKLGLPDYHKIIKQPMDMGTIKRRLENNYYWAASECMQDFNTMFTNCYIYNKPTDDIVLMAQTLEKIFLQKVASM

GI50 [1] [nM] | IC50 (BRD2 BD2) [nM] | inhibition at 0.3 µM (BRD2 BD2) [%] | IC50 (BRD4 BD1) [nM] | inhibition at 0.3 µM (BRD4 BD1) [%] | IC50 (BRD2 BD1) [nM] | inhibition at 0.3 µM (BRD2 BD1) [%] | GI50 [2] [nM] | IC50 (BRD3 BD1) [nM] | inhibition at 0.3 µM (BRD3 BD1) [%] | GI50 [3] [nM] | GI50 [4] [nM] | GI50 [5] [nM] | IC50 (BRD3 BD2) [nM] | inhibition at 0.3 µM (BRD3 BD2) [%] | IC50 (BRD4 BD2) [nM] | inhibition at 0.3 µM (BRD4 BD2) [%] | GI50 [6] [nM] | SMILES
665 | 94 | 74 | 5 | 93 | 9 | 93 | 12 | 4 | 94 | 60 | 32 | 570 | 70 | 83 | 27 | 82 | 241 | CCn1c(=O)cc(C2CCN(C)CC2)c2cc(C(=O)N(C)c3ccc(C)cc3)ccc21 [Example 14, 1-Ethyl-N-methyl-N-(4-methylphenyl)-4-(1-methylpiperidin-4-yl)-2-oxo-1,2-dihydroquinoline-6-carboxamide]
292 | 33 | 85 | 3 | 94 | 5 | 93 | 6 | 3 | 94 | 23 | 16 | 314 | 14 | 91 | 10 | 88 | 116 | CCn1c(=O)cc(C2CCN(C)CC2)c2cc(C(=O)N(C)c3ccc4c(c3)CCC4)ccc21 [Example 17, N-(2,3-dihydro-1H-inden-5-yl)-1-ethyl-N-methyl-4-(1-methylpiperidin-4-yl)-2-oxo-1,2-dihydroquinoline-6-carboxamide]
1740 | 7 | 89 | 20 | 91 | 61 | 79 | 10 | 37 | 90 | 97 | 37 | 1860 | 4 | 92 | 3 | 88 | 628 | CCn1c(=O)cc(N2CCOCC2)c2cc(-n3c(-c4ccc(Cl)cc4)c[nH]c3=O)ccc21 [Example 245, 6-(5-(4-chlorophenyl)-2-oxo-2,3-dihydro-1H-imidazol-1-yl)-1-ethyl-4-(morpholin-4-yl)quinolin-2(1H)-one]
